In patent US20250352541A1, “THERAPEUTIC FOR CANCER REFRACTORY TO IMMUNE CHECKPOINT INHIBITOR” (Sumitomo Pharma Co., Ltd., priority 2022, published 2025):
Blank lines part the entries; values can stand above or below the compound they belong to.

What was measured:
CYP3A4 = CYP3A4 (Homo sapiens (Human), UniProt P08684); experiment: CYP3A4 MBI and enzyme inactivation clearance evaluation; format: in vitro ADME
Description: The effect and mode of inhibition of the test compound on CYP3A4 were evaluated using a human liver microsome as an enzyme source and midazolam or testosterone as a substrate. […] The IC50 value was calculated from a concentration plot.

hERG current = hERG current (Homo sapiens (Human), UniProt Q12809); experiment: hERG current blocking test; settings: IC50 of hERG divided by IC50 of CHK1 inhibition
Description: The test compounds were added to cultured hERG (human Ether-a-go-go Related Gene) gene stably expressing CHO cell line cells to achieve 0.27 to 100 μM.

[1] = test system: mouse renal cancer cells Renca; experiment: Intracytoplasmic ssDNA evaluation test in cells; format: cell-based; settings: 24 hours treatment, versus DMSO
Description: (§1) After 24 hours from seeding of mouse breast cancer cells EMT6 and mouse renal cancer cells Renca, the cells were treated with Example 1 and DMSO and cultured for 24 hours. Thereafter, the cells were collected, and cytoplasmic components were extracted using NE-PER Nuclear and Cytoplasmic Extraction so Reagents (Thermo Fisher Scientific Inc.). After protein quantification and concentration adjustment, ssDNA was quantified using Qbit ssDNA Assay Kit (Thermo Fisher Scientific Inc.).

[2] = test system: mouse breast cancer cells EMT6; experiment: Intracytoplasmic ssDNA evaluation test in cells; format: cell-based; settings: EMT6, 24 hours treatment, versus DMSO
Description: as §1

ES-2 cells [3] = experiment: Cell growth suppression experiment; format: cell-based
Description: ES-2 cells were obtained from the American Type Culture Collection (ATCC). These cells were cultured at 37° C. in the presence of 5% CO2 in a 10% fetal bovine serum, 1% penicillin/streptomycin containing McCoy's 5a medium.
500 cells were seeded for each well in a 384-well plate, and the evaluated compound was added so that the final concentration of DMSO would be 0.1% to culture the cells for 2 days. After completion of the culture, the cell viability rate was calculated using CellTiter-Glo® 3D Reagent (Promega, G968B).
The results of cell growth suppression test on representative compounds of the present disclosure are listed in the following table based on the ranking of I, IT, III, IV, and V (1000 nM<I, 1000 nM>TI>300 nM, 300 nM>III>100 nM, 100 nMV>IV>30 nM, 30 nM>V).

[4] = test system: Human bone marrow CD34 positive hematopoietic stem cells; experiment: Human bone marrow cell myeloid lineage differentiation induction test; format: cell-based; settings: 3 nM
Description: Human bone marrow CD34 positive hematopoietic stem cells were obtained from Lonza K. K. The frozen cells were thawed in a 1% fetal bovine serum containing IMDM medium and suspended in a Complete hemaTox® Myeloid Medium. 1000 cells were seeded per well in a 96-well plate. The evaluated compound was added so that the final concentration of DMSO would be 0.1% and 3 nM, and the cells were cultured for 7 days at 37° C. in the presence of 5% CO2. After completion of culture, half of the amount of cell suspension was retrieved from each well. The luminescence was measured using CellTiter-Glo® 3D Reagent (Promega, G968B) to calculate the cell survival percentage by the following equation.

[5] = Liposome encapsulation test (Test Example 6); format: physicochemical
Description: 6.48 g of hydrogenated soybean phosphatidylcholine (COATSOME NC-21E, NOF Corporation), 2.32 g of cholesterol (Sigma) and 2.06 g of distearoylphosphatidylethanolamine-methoxypolyethylene glycol 2000 (SUNBRIGHT DSPE-020CN, NOF Corporation) were dissolved in 560 mL of t-butyl alcohol heated to 65° C. The solution was frozen with dry ice/acetone bath and t-butyl alcohol was then removed by evaporation under reduced pressure to obtain a lipid mixture.
200 mL of 250 mM ammonium sulfate solution was added to the lipid mixture. The resulting mixture was heated to 65° C. and dispersed with a homogenizer (ULTRA-TURRAX, IKA) to obtain a crude liposome dispersion. […] The prepared amount was increased or decreased appropriately.
2 to 3 mg of the test compound was weighed out. […] An aqueous 1 mol/L hydrochloric acid or 1 mol/L sodium hydroxide solution was added to adjust the pH to 5.5 to 7. […] Insolubles, when present, were removed by centrifugation for 5 minutes at 15,000× g.
The liposome encapsulation ratio was calculated as follows.
100 μL of liposome solution was passed through an ultrafiltration filter (Amicon Ultra, 100K, 0.5 mL, Merck), and centrifuged at 4° C. at 15,000×g for 10 minutes. The concentration of the compound in the filtrate after ultrafiltration was measured by HPLC as the unencapsulated compound concentration.
The liposome solution was diluted with a trifluoroacetic acid/water/methanol mixture (0.1/25/75) and was left standing for 10 minutes or longer at 5° C. The solution was centrifuged for 5 minutes at 15,000× g to remove insolubles. The compound concentration in the supernatant was measured by HPLC as the compound concentration in the liposome solution.
The encapsulation ratio and the encapsulation efficiency were calculated by the following equations.
HPLC measurement conditions are the following.

[6] = Liposome encapsulation test of Example 1 (Test Example 6a); format: physicochemical
CHK1 = CHK1 (Homo sapiens (Human), UniProt O14757); experiment: CHK1 inhibitory activity test (IMAP TR-FRET)
Description: IMAP TR-FRET Screening Express Kit (R8160) was obtained from Molecular Devices. […] FAM-PKAtide (R7255, Molecular Devices) and FAM-Phospho-PKAtide (R7304, Molecular Devices) were admixed after dilution, and calibration standard systems for phosphorylation levels from 0 to 100% were created. 5 μL of a compound dissolved in a 0.4% DMSO solution was added to a 384 well plate. A compound study group to which 5 μL of each of CHK1, CHK1tide, and ATP was added, and a standard group to which 20 μL of standard was added were created, and subjected to a kinase reaction for 3 hours at 30° C. Subsequently, 60 μL of Binding Reagent (80% Buffer A, 20% Buffer B, 1:600 Binding Reagent, 1:400 Tb-Donor) was added for a binding reaction for 2 hours at room temperature.

[7] = test system: Human bone marrow CD34 positive hematopoietic stem cells; experiment: Human bone marrow cell colony formation test (hemotoxicological evaluation); format: cell-based; settings: 100 nM; for Colony count (/well) mean: 48 hours, then about 2 weeks culture
Description: Human bone marrow CD34 positive hematopoietic stem cells were obtained from Lonza K.K. The frozen cells were thawed in a medium prepared by mixing a Methocult Express medium and a 10% fetal bovine serum with 1% penicillin/streptomycin containing RPMI 1640 medium at 9:1. 5000 cells were seeded per well in a 6 well plate and cultured overnight at 37° C. in the presence of 5% CO2. The evaluated compound was added so that the final concentration of DMSO would be 0.1% and 100 nM, and the cells were cultured for 48 hours. The cells were retrieved and washed with PBS. ⅙ of the amount of cells was seeded in a 12 well plate and cultured for about 2 weeks at 37° C. in the presence of 5% CO2. After completion of culture, the number of colonies formed was calculated using Thiazolyl blue tetrazolium bromide (MTT).

neutrophils = settings: 30 mg/kg, 14 days, 2 times/week, blood 96 hours after the final administration
Description: The test compound was weighed out. An empty liposome solution with a total lipid concentration of 50 mM was added so that the compound concentration would be 2 mg/mL, and 1 mol/L hydrochloric acid was added to adjust the pH to 6 to 7. Alternatively, 10 mM L-histidine buffer/10% sucrose solution (pH 6.5) and hydrochloric acid were added to the test compound to dissolve or disperse the compound, and an empty liposome solution with a total lipid concentration of 75 mM was added so that the compound concentration would be 2 mg/mL, and the pH was adjusted to 6 to 7.
Blood was collected 96 hours after the final administration to measure the neutrophil count.

ES-2 cells [8] = experiment: Concomitantly used drug efficacy evaluation test using tumor-bearing mice transplanted with ES-2 cells (gemcitabine); format: in vivo, BALB/c-nu/nu mice; settings: Peritoneal, 30 mg/kg, 14 days, 2 times/week
Source text: The test compound was weighed out.

ARK5/NUAK1 = ARK5/NUAK1 (Homo sapiens (Human), UniProt O60285); experiment: Kinase selectivity test (HotSpot Full Panel Kinase profiling); format: biochemical; settings: ARK5/NUAK1, compound 100 nM, ATP 10 μm; read-out: Residual activity (%)
[9] = test system: head and neck squamous cell carcinoma; settings: head and neck squamous cell carcinoma (Non Patent Literature 7); cited from earlier work
[10] = concentration upon compound introduction 3 mg/mL
[11] = concentration upon compound introduction 2 mg/mL

Sequence of CYP3A4 (P08684 whole entry): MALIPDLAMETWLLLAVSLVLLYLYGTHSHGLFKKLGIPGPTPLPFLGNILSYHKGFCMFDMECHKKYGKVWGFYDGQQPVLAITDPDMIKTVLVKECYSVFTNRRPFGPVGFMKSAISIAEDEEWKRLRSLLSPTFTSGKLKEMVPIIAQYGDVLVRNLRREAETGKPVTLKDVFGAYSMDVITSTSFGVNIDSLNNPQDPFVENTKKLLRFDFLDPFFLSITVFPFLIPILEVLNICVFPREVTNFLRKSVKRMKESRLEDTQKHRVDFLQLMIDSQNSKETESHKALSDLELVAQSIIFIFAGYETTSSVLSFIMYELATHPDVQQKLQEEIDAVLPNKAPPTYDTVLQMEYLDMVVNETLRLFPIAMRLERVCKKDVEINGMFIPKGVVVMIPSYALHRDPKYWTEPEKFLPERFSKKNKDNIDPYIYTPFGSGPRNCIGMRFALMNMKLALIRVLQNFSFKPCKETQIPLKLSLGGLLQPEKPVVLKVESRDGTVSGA
Sequence of CHK1 (O14757 whole entry): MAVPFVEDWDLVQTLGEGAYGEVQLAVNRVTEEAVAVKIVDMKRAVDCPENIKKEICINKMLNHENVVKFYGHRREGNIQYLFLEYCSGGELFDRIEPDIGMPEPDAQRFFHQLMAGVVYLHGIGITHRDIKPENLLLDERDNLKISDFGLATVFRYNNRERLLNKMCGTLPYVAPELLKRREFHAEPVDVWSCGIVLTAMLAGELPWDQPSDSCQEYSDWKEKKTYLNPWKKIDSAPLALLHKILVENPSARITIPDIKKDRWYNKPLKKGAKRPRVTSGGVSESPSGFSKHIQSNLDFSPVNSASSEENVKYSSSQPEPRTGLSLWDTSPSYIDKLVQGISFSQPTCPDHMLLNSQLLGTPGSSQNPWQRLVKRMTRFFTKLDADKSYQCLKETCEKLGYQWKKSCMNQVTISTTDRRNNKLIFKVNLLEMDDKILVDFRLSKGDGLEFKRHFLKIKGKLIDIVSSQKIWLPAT
Sequence of ARK5/NUAK1 (O60285 whole entry): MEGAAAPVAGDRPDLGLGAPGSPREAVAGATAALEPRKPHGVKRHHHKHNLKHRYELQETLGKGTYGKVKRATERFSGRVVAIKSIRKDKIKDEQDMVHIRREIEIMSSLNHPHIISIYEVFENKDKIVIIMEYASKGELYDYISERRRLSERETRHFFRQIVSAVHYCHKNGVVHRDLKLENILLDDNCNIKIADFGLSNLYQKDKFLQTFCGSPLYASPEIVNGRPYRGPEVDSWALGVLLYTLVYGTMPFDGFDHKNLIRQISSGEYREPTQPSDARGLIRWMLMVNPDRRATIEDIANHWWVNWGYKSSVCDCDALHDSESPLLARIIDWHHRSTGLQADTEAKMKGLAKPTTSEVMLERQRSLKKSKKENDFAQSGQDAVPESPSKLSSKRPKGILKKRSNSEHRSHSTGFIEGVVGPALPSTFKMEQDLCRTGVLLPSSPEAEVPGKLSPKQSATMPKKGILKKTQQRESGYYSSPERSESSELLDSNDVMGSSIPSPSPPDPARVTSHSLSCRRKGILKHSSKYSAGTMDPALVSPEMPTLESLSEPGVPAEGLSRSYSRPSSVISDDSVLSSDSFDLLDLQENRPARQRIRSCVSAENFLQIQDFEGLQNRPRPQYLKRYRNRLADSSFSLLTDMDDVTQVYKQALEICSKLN
Sequence of hERG current (Q12809 whole entry): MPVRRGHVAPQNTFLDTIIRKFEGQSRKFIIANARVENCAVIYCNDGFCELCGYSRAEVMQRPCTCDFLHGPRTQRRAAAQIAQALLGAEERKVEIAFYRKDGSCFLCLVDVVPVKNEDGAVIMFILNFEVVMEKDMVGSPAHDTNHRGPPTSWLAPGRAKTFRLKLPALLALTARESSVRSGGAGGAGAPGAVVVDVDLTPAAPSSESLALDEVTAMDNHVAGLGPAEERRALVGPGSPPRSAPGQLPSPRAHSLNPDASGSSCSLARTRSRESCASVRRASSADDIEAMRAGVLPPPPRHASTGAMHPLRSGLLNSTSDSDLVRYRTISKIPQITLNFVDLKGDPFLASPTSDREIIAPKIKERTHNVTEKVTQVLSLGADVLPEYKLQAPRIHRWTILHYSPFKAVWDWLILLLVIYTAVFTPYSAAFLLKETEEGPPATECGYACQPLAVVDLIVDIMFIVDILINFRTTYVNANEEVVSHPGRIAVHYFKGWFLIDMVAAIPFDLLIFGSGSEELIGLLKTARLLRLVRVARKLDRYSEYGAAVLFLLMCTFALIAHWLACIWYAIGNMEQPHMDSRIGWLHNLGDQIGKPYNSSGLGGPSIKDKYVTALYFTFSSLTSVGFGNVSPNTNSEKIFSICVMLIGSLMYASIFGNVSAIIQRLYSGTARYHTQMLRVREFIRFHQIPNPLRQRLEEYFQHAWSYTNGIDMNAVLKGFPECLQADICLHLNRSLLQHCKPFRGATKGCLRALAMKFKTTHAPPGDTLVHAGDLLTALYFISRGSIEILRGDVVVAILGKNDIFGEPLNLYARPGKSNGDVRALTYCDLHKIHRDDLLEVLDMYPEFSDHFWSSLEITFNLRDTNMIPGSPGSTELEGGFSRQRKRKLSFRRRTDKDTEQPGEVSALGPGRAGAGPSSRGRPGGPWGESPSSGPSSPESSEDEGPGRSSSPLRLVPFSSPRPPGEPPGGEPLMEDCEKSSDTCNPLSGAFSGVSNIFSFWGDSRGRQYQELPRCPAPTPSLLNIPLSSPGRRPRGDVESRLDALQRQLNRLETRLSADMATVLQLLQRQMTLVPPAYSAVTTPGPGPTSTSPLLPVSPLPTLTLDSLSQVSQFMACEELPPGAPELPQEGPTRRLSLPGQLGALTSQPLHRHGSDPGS

Compound: COc1ccnc(OCCCN)c1-c1cc(Nc2cnc(C#N)cn2)n[nH]1 [Example 1, 5-({5-[2-(3-aminopropoxy)-4-methoxypyridin-3-yl]-1H-pyrazol-3-yl}amino)pyrazine-2-carbonitrile]
inhibition of CYP3A4 based on MBI (CYP3A4): do not exhibit inhibition of CYP3A4 based on MBI
Factor of change in IC50 value (CYP3A4; human liver microsome, pre-incubation in the presence of NADPH): Not Detected
hERG/CHK1 (hERG current): >115000
increase of ssDNA in cytoplasm [1]: 1.5 times
increase of ssDNA in cytoplasm [2]: 1.3 times
cell growth suppression effect compared with prexasertib (ES-2 cells [3]): excellent cell growth suppression effect that is equivalent to that of prexasertib
effect of suppressing myeloid cells induced to differentiate from human bone marrow cells [4]: does not exhibit an effect of suppressing myeloid cells induced to differentiate from human bone marrow cells
encapsulation efficiency [5]: ≥ 80%
Encapsulation efficiency (%) [5, 10]: 87.4%
liquid viscosity during the liposome encapsulation procedure ([5]; pH adjusted by adding 1 mol/L hydrochloric acid): increase in viscosity was not found
liposome encapsulation efficiency [6]: ≥ 90%
Encapsulation efficiency (%) [6, 11]: 91.3%
Encapsulation efficiency (%) [6, 10]: 91.6%
Encapsulation efficiency (%) ([6]; concentration upon compound introduction 4 mg/mL): 92.2%
CHK1 inhibitory activity relative to prexasertib (CHK1): ≥ 5 fold
IC50 (CHK1): < 0.1 nM
effect of suppressing CHK1 activity compared with prexasertib (CHK1): more potent effect of suppressing CHK1 activity than prexasertib
effect of suppressing human bone marrow cell colony formation [7]: does not exhibit an effect of suppressing human bone marrow colony formation
Colony count (/well) mean [7]: 34 /well

Ratio of residual neutrophils (%) (neutrophils): 39%
Compound: Nc1ccn([C@@H]2O[C@H](CO)[C@@H](O)C2(F)F)c(=O)n1 [Gemcitabine]
CR (%) (ES-2 cells [8]): 0%
T/C (%) (ES-2 cells [8]): 9%

remaining activity at 0.1 µM (ARK5/NUAK1): 17.9%
Compound concentration in liposome solution [5, 11]: 2.16 mg/mL
Compound: COc1cccc(OCCCN)c1-c1cc(Nc2cnc(C#N)cn2)n[nH]1 [Prexasertib, reference compound]
inhibition of CYP3A4 based on MBI (CYP3A4): exhibits inhibition of CYP3A4 based on MBI
effect of suppressing myeloid cells induced to differentiate from human bone marrow cells [4]: exhibited an effect of suppressing myeloid cells induced to differentiate from human bone marrow cells
effect of suppressing human bone marrow cell colony formation [7]: exhibits an effect of suppressing human bone marrow cell colony formation
Colony count (/well) mean [7]: 19 /well

Compound: nivolumab
overall response rate [9]: 13.3%
